The values that follow come from patent publication US8470855B2, “Dual-use peptidase inhibitors as prodrugs for a therapy of inflammatory and other diseases” (IMTM GmbH, priority 2005, dated 2013).

Test [1] deals with T1, Dipeptidyl peptidase IV (EC 3.4.14.5.) (Sus scrofa, UniProt P22411).
T1 construct: purchased Sigma; host or cells: pig kidney (tissue-derived)
The experiment in a line: IC50 determination against DP IV after reduction of the prodrugs with DTT. The test is classed as biochemical. As to conditions: after release (reduction with DTT) of the inhibitors from the prodrugs; pig kidney enzyme, substrate Ala-Pro-AMC, pH 7.6, 30° C.; read-out: DP IV (IC 50 [M]). The procedure:
(§1) Process of the Reduction with DTT:
(§2) Same volumes of the 7·10^−2 M solution of the inhibitor in water or DMF and a 0.35 M aqueous DTT-solution (5 equivalents) were agitated 4 hours at RT.
(§3) Subsequently to the reductive treatment of the prodrugs the IC50-values were estimated using the following process:
(§4) Determination of the IC50-Values after Reduction:
Dipeptidyl peptidase IV from pig kidney (EC 3.4.14.5.), lyophilisated powder (Sigma).
Substrate: Ala-Pro-AMC, [S]=3·10^−5 M (2 Km) in the reaction batch.
Buffer: 40 mM Tris/HCl-buffer, pH 7.6, I=0.125 in the reaction batch.
By dilution with water 10 to 12 solutions with defined inhibitor concentration were prepared from the reduction batch. These were selected from a relevant concentration range, i.e. between complete inhibition and non-influenced enzyme activity.
60 μl of these inhibitor solutions each or water (standard), were incubated with 80 μl of the according diluted enzymes in buffer for 15 minutes at 30° C. and subsequently 60 μl of the according AMC-substrate in water (total volume 200 μl) were added. The release of the 7-Amino-4-methyl-cumarin was traced continuously over a period of 20 minutes at 30° C. using a fluorence-pladt-reader NOVOstar (BMG Labtechnologies). The enzyme concentration was chosen to give a linear increase of the fluorescence during the measuring period. […]

In test [2] the target is T2, APN (Leucin aminopeptidase, microsomal, EC 3.4.11.2) (Sus scrofa, UniProt P15145).
T2 construct: purchased Sigma; host or cells: pig kidney (tissue-derived)
T2 sequence (P15145 1-963): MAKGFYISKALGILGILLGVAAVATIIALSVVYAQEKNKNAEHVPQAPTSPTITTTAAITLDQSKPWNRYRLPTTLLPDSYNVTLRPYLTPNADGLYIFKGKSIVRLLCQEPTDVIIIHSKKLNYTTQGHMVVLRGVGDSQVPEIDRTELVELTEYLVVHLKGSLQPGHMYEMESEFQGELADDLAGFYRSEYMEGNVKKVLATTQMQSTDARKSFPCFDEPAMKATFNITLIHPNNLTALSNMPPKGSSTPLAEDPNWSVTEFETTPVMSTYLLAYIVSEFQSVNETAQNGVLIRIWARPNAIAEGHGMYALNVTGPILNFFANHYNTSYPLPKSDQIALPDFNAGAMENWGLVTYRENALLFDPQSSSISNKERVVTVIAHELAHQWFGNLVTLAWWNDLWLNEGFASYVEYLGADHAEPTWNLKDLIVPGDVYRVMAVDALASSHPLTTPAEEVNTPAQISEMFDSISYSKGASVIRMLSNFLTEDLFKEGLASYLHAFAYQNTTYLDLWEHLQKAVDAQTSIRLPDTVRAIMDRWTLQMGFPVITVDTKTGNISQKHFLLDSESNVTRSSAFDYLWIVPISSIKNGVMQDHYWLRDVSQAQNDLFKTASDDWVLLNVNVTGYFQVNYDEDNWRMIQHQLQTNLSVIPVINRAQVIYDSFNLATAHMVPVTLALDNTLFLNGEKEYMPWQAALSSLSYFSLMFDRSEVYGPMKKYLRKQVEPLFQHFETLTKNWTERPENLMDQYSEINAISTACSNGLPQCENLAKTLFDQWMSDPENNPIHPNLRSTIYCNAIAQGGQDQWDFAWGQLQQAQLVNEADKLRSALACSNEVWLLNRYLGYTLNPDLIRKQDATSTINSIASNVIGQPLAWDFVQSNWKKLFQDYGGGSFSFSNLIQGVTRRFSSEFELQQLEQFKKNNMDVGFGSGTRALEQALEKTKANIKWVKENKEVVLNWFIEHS
The test can be described thus: IC50 determination against APN after reduction of the prodrugs with DTT. The test is classed as biochemical. As to conditions: after release (reduction with DTT) of the inhibitors from the prodrugs; pig kidney enzyme, substrate Leu-AMC, pH 7.2, 30° C.; read-out: APN (IC 50 [M]). The procedure:
as §1, §2, §3, §4
Leucin aminopeptidase, microsomal, from pig kidney (EC 3.4.11.2).
Suspension in 3.5 M (NH4)2SO4-solution (Sigma).
Substrate: Leu-AMC, [S]=1.5·10^−4 M (2 Km) in the reaction batch.
Buffer: 40 mM Tris/HCl-buffer, pH 7.2 in the reaction batch. […]
60 μl of these inhibitor solutions each or water (standard), were incubated with 80 μl of the according diluted enzymes in buffer for 15 minutes at 30° C. and subsequently 60 μl of the according AMC-substrate in water (total volume 200 μl) were added. The release of the 7-Amino-4-methyl-cumarin was traced continuously over a period of 20 minutes at 30° C. using a fluorence-pladt-reader NOVOstar (BMG Labtechnologies). The enzyme concentration was chosen to give a linear increase of the fluorescence during the measuring period.
The excitation- and emission-wavelengths, respectively, were 390 and 460 nm. […] The turn-over rates (increase of fluorescence/minutes) were plotted against the concentration of the inhibitor and the IC50-values were calculated using the computer program GraFit. […]

T1 sequence (P22411 whole entry): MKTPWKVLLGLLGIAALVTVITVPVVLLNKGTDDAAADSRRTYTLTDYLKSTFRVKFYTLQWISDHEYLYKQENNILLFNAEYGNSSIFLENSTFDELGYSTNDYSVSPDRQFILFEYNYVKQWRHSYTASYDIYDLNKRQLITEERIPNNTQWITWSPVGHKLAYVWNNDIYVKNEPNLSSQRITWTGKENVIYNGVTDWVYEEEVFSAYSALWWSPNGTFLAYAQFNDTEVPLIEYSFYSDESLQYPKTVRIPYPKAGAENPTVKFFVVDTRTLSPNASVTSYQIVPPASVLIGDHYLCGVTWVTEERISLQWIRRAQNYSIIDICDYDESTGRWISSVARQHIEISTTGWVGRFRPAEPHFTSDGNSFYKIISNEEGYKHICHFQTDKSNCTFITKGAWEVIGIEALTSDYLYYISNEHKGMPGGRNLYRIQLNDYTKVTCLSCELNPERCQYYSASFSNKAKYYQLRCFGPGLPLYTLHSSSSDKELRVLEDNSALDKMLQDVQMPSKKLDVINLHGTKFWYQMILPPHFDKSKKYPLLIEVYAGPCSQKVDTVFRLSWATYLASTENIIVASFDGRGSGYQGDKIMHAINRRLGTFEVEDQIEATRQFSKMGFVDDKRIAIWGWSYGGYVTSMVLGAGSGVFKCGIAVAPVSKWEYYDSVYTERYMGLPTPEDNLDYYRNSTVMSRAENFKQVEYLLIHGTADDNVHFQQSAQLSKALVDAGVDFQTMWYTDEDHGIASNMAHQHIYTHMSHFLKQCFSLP

For `NC(CCCCNC(=O)OCc1ccc([N+](=O)[O-])cc1)C(=O)N1CCSC1` (centres unmarked) [Lys[Z(NO2)]-thiazolidide, H-Lys[Z(NO2)]-thiazolidide], the IC50 in test [1] came to 4.34e-07 M. In the case of `CCCCC[C@H](CC(=O)NO)C(=O)N[C@H](C(=O)N1CCC[C@H]1CO)C(C)C` [Actinonine, actinonine], the IC50 in test [2] stood at 3.02e-07 M.
